Source: patent publication US9428500B2, “Alpha-carbolines for the treatment of cancer” (UNIVERSITA' DEGLI STUDI DI MILANO—BICOCCA, priority 2012, dated 2016)

Tests used:
NPM/ALK+ Karpas299 cells = assay: NPM/ALK+ Karpas299 tumour growth in SCID mice; assay type: in vivo; conditions: oral gavage, 150 mg/kg twice per day, subcutaneous Karpas299 tumors in SCID mice
Protocol: The in vivo studies were approved by the Italian Ministry of Research and by the University internal ethical committee, and were run according to guidelines to reduce animal pain. Ten million NPM/ALK+ Karpas299 cells were injected subcutaneously in the right flank of SCID mice. Ten days later, when the tumors reached the size of 100 mm3 on average, mice were randomized either to control arm, receiving vehicle only (0.5% carboxymethylcellulose and 0.1% Tween80), or to treatment arm, receiving compound R533 by oral gavage, 150 mg/kg twice per day. Tumor size was measured bi-weekly by a caliper. General toxicity was assessed by monitoring weight loss, and by visual inspection for any sign of stress or suffering, including eye closure or bulging, ruffled/dull fur, reduced mobility, drowsiness, diarrhea.

[1] = system: parental untransformed BaF3 cells; assay: Tritiated thymidine uptake cell proliferation assay, parental BaF3; assay type: cell-based; conditions: Mus musculus, BaF3; 3H-thymidine uptake, 72 h, medium with IL-3

Q: For CN1CCN(c2ccc(-c3ccc4[nH]c5nccc(-c6ccc(Cc7ccccc7)cc6)c5c4c3)cc2)CC1 [Example 16, 4-(4-Benzylphenyl)-6-[4-(4-methylpiperazin-1-yl)-phenyl]-9H-pyrido[2,3-b]indole], which “Tumor size (tumour growth curves)” value (NPM/ALK+ Karpas299 cells) is on record?
A: remarkable effect

Q: And the IC50 [1]?
A: 8.7 µM
